{"source": "patent US9616107B2", "about": "“Therapy for kidney disease and/or heart failure” (priority 2011, dated 2017)", "test": "Toxicology study of VD in rats: 5-day continuous subcutaneous infusion by Alzet minipumps, plasma VD by radioimmunoassay, clinical observations", "assay_type": "in vivo", "settings": "for maximum tolerated dose for prolonged subcutaneous administration: expected; for Cmin: SC infusion 5 days", "method": "VD was administered to a rat model via a subcutaneous delivery route to assess the toxicity of VD and to determine if a lethal dosing amount of the VD can be reached by subcutaneous administration. As noted above, a maximum tolerated or lethal dosing amount was not observed for canines.\nVD-acetate (Bachem lot 2502022) was prepared in the Tris/Glycerin/m-cresol buffer at a concentration of 3 mg/mL or 15 mg/mL. The VD solution was administered continuously by subcutaneous infusion using Alzet® (Durect Corp.) osmotic minipumps (model 2002) over a period of 5 days to 3 study groups, where each study group (Groups 1-3) contained 3 male and 3 female Sprague Dawley rats.\nThe continuous subcutaneous delivery dose for Group 1 was calibrated to yield an administration of approximately 100 ng/(kg·min) of VD, which is in the range of a dosing regimen useful for clinical use in humans. […] However, an estimated body weight of 250 g was used for all animals (males and females) for reporting pharmacokinetic and toxicological calculations; therefore, the estimated daily dose is reported as 0.144 mg/kg·day (or 100 ng/(kg·min)) for all animals in Group 1, and the total dose delivered to each animal over the 5-day period was 0.180 mg.\nThe continuous subcutaneous delivery dose for Group 2 was calibrated to yield an administration of approximately 1000 ng/(kg·min) of VD, which is 10-fold higher than for Group 1. Each rat in Group 2 each had two Alzet pumps implanted to have a combined infusion rate was 1.0 μL/hr of the 15 mg/mL VD solution. The resulting actual mean weight-based doses were 1.026 and 1.629 mg/(kg·day) for males and females, respectively. For the pharmacokinetic calculations, an estimated body weight of 280 g was used for all animals (males and females); therefore, the estimated daily dose was reported as 1.29 mg/(kg·day) (or ˜896 ng/(kg·min)) for all animals in Group 2, and the total dose delivered to each animal over the 5 day period was 1.8 mg.\nThe continuous subcutaneous delivery dose for Group 3 was calibrated to yield an administration of approximately 2000 ng/(kg·min). Each rat each had four Alzet pumps implanted for a combined infusion rate was 2.0 μL/hr of the 15 mg/mL VD solution. The resulting actual mean weight-based doses were 1.870 and 3.303 mg/(kg·day) for males and females, respectively. For pharmacokinetic calculations, an estimated body weight of 300 g was used for all animals (males and females); therefore the estimated daily dose was reported as 2.4 mg/(kg·day) (or (or ˜1667 ng/(kg·min)) for all animals in Group 3, and the total dose delivered to each animal for the 5 day period was 3.6 mg. The dosing for Groups 1-3 is summarized in Table 5.\nAll animals in Groups 1-3 were observed twice daily for mortality and moribund appearance during the 5-day dosing period and during an at least 16-day pretest period. Clinical examinations were performed daily for all animals following surgery to implant the Alzet pumps. Detailed physical examinations were conducted on all animals approximately weekly during a pretest period of at least 16 days, prior to beginning dosing (Day 0), and on Day 5 prior to euthanasia. Individual body weights were recorded at least weekly during the pretest period, on Day 0 prior to dosing, and on Day 5 prior to euthanasia. Individual food consumption was recorded approximately weekly during the pretest period, on Day 0 prior to dosing, and on Day 5 prior to euthanasia. Blood samples for determination of plasma drug concentration were collected from all animals at approximately 4, 8, and 24 hours after pump implantation on Day 0 and immediately prior to euthanasia on Day 5 (120 hours after the start of dosing). Blood was collected via the retro-orbital sinus from animals anesthetized with isoflurane into chilled tubes containing K3-EDTA. Following the final blood collection, the animals were euthanized and discarded. […]", "key": {"[1]": {"settings": "female, Sprague Dawley, rat, in vivo, sc, 0.18 mg"}, "[2]": {"settings": "female, Sprague Dawley, rat, in vivo, sc, 1.8 mg"}, "[3]": {"settings": "female, Sprague Dawley, rat, in vivo, sc, 3.6 mg"}}, "note": "Where two headings read alike, the source gives them in different places. Ends that are not written are not given here."}
{"sequence": "EVVPPQVLSEPNEEAGAALSPLPEVPPWTGEVSPAQR [VD, Vessel Dilator]", "values": [{"measurement": "level at 8 h", "setting": "Sprague Dawley, rat, in vivo, sc, 0.18 mg total dose, male rats N=3, 0.180 mg, 8 hours post-dosing, read-out: Mean concentration of vessel dilator in plasma", "result": 11.9, "unit": "ng/mL"}, {"measurement": "level at 4 h", "setting": "Sprague Dawley, rat, in vivo, sc, 0.18 mg, male rats N=3, 0.180 mg, 4 hours post-dosing (from start of infusion), read-out: Mean concentration of vessel dilator in plasma", "result": 17.1, "unit": "ng/mL"}, {"measurement": "level at 24 h", "setting": "Sprague Dawley, rat, in vivo, sc, 0.18 mg, male rats N=3, 0.180 mg, 24 hours post-dosing, read-out: Mean concentration of vessel dilator in plasma", "result": 13.3, "unit": "ng/mL"}, {"measurement": "level at 120 h", "setting": "Sprague Dawley, rat, in vivo, sc, 0.18 mg, male rats N=3, 0.180 mg, 120 hours post-dosing, all samples, read-out: Mean concentration of vessel dilator in plasma", "result": 78.6, "unit": "ng/mL"}, {"measurement": "level at 8 h", "setting": "Sprague Dawley, rat, in vivo, sc, 1.8 mg total dose, male rats N=3, 1.80 mg, 8 hours post-dosing, read-out: Mean concentration of vessel dilator in plasma", "result": 204, "unit": "ng/mL"}, {"measurement": "level at 4 h", "setting": "Sprague Dawley, rat, in vivo, sc, 1.8 mg, male rats N=3, 1.80 mg, 4 hours post-dosing, read-out: Mean concentration of vessel dilator in plasma", "result": 62.3, "unit": "ng/mL"}, {"measurement": "level at 24 h", "setting": "Sprague Dawley, rat, in vivo, sc, 1.8 mg, male rats N=3, 1.80 mg, 24 hours post-dosing, read-out: Mean concentration of vessel dilator in plasma", "result": 167, "unit": "ng/mL"}, {"measurement": "level at 120 h", "setting": "Sprague Dawley, rat, in vivo, sc, 1.8 mg, male rats N=3, 1.80 mg, 120 hours post-dosing, read-out: Mean concentration of vessel dilator in plasma", "result": 214, "unit": "ng/mL"}, {"measurement": "level at 4 h", "setting": "Sprague Dawley, rat, in vivo, sc, 3.6 mg, male rats N=3, 3.60 mg, 4 hours post-dosing, read-out: Mean concentration of vessel dilator in plasma", "result": 370, "unit": "ng/mL"}, {"measurement": "level at 8 h", "setting": "Sprague Dawley, rat, in vivo, sc, 3.6 mg, male rats N=3, 3.60 mg, 8 hours post-dosing, read-out: Mean concentration of vessel dilator in plasma", "result": 255, "unit": "ng/mL"}, {"measurement": "level at 24 h", "setting": "Sprague Dawley, rat, in vivo, sc, 3.6 mg, male rats N=3, 3.60 mg, 24 hours post-dosing, read-out: Mean concentration of vessel dilator in plasma", "result": 168, "unit": "ng/mL"}, {"measurement": "level at 120 h", "setting": "Sprague Dawley, rat, in vivo, sc, 3.6 mg, male rats N=3, 3.60 mg, 120 hours post-dosing, read-out: Mean concentration of vessel dilator in plasma", "result": 261, "unit": "ng/mL"}, {"measurement": "maximum tolerated dose for prolonged subcutaneous administration", "setting": "female rats", "result": "> 2300", "unit": "ng/kg·min"}, {"measurement": "level at 4 h", "setting": "[1]", "result": 27.5, "unit": "ng/mL"}, {"measurement": "level at 8 h", "setting": "[1]", "result": 31.6, "unit": "ng/mL"}, {"measurement": "level at 24 h", "setting": "[1]", "result": 33.2, "unit": "ng/mL"}, {"measurement": "level at 120 h", "setting": "[1]", "result": 27.1, "unit": "ng/mL"}, {"measurement": "level at 4 h", "setting": "[2]", "result": 135, "unit": "ng/mL"}, {"measurement": "level at 8 h", "setting": "[2]", "result": 275, "unit": "ng/mL"}, {"measurement": "level at 24 h", "setting": "[2]", "result": 320, "unit": "ng/mL"}, {"measurement": "level at 120 h", "setting": "[2]", "result": 265, "unit": "ng/mL"}, {"measurement": "level at 4 h", "setting": "[3]", "result": 725, "unit": "ng/mL"}, {"measurement": "level at 8 h", "setting": "[3]", "result": 454, "unit": "ng/mL"}, {"measurement": "level at 24 h", "setting": "[3]", "result": 427, "unit": "ng/mL"}, {"measurement": "level at 120 h", "setting": "[3]", "result": 567, "unit": "ng/mL"}, {"measurement": "Cmin", "setting": "male rats, 1.80 mg total dose", "result": 62.3, "unit": "ng/mL"}, {"measurement": "Cmin", "setting": "male rats, 3.60 mg total dose", "result": 167, "unit": "ng/mL"}, {"measurement": "maximum tolerated dose for prolonged subcutaneous administration", "setting": "male rats", "result": "above 1300 ng/kg·min"}, {"measurement": "Tmax", "setting": "male, Sprague Dawley, rat, in vivo, sc, Tmax", "result": 81.3, "unit": "h"}, {"measurement": "clinical signs of toxicity", "setting": "rat, in vivo", "result": "None of the animals in Groups 1-3 showed clinical signs of toxicity"}, {"measurement": "plasma concentration up to which no toxicity issues were shown", "setting": "rat, in vivo, sc", "result": "approx. 740 ng/mL"}, {"measurement": "AUCτ of Group 3 females compared to Group 3 males", "setting": "rats, 3.60 mg, similar when normalized to weight", "result": "up to 2 fold"}, {"measurement": "clinical observations, body weight gain, food consumption", "setting": "rats, 5-day dosing period", "result": "no remarkable clinical observations, effects on body weight gain or effects on food consumption"}, {"measurement": "survival", "setting": "rats, Groups 1-3", "result": "all animals survived until euthanasia"}]}
